We go through twelve compounds from ChEMBL document CHEMBL1201862, “PubChem BioAssay data set” (2004).

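Following 48 hours of exposure in 96-well plates, responses at five concentrations were used to interpolate endpoints linearly. GI50 marks 50% less growth.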 The source made the active and inactive calls. No stated cut-off is given here; in the data, active = GI50 up to about 1.1 µM and inactive = higher. A value given as a limit tells only on which side of the number the result lay.

Test systems include HCT-116; NCI/ADR-RES; U-251; HT-29; OVCAR-5; CAKI-1; HL-60; SW-620; SK-OV-3; HCT-15; OVCAR-3; MDA-MB-231; SF-295; OVCAR-8; UO-31; MOLT-4; NCI-H226; Malme-3M; RPMI-8226.
Assay in all cases: NCI anticancer screen, dose series, 48 h

Take `CC1=CC(=O)/C(=C/N2C(=O)CNC2=S)C(=O)O1`: the GI50 with HCT-116, in the test with NCI/ADR-RES, in the test with U-251, with HT-29, with OVCAR-5 and in the test with CAKI-1 was > 100 µM (inactive) throughout. Moreover, the GI50 in the test on HL-60 was > 100 µM (inactive); with SW-620, > 100 µM (inactive); in the test with SK-OV-3, > 100 µM (inactive); with HCT-15 it was over 100 µM; in the test with OVCAR-3, > 100 µM (inactive); in the test on MDA-MB-231, > 100 µM (inactive). For the same compound, the GI50 in the test on SF-295, with OVCAR-8, in the test on UO-31, in the test on MOLT-4 and with NCI-H226 was > 100 µM (inactive) throughout.

For the compound `Cn1nnc2c3c(N(CCO)CCO)ccnc3ccc21`, the GI50 with HCT-116 is 54.2 µM (inactive); with NCI/ADR-RES, > 100 µM (inactive); in the test with Malme-3M, > 100 µM (inactive); in the test with HT-29, 89.3 µM (inactive); in the test with OVCAR-5, > 100 µM (inactive); in the test on CAKI-1 it was > 100 µM (inactive). In addition, the GI50 was > 10 µM (inactive) in the test with HL-60; > 100 µM (inactive) with SW-620; > 100 µM (inactive) in the test on SK-OV-3; over 100 µM in the test with HCT-15; > 100 µM (inactive) in the test with OVCAR-3; > 100 µM (inactive) in the test with MDA-MB-231. The GI50 was > 100 µM (inactive) in the test on SF-295, > 100 µM (inactive) with OVCAR-8, > 100 µM (inactive) with UO-31 and 47.4 µM (inactive) in the test on MOLT-4.

`CCOC(=O)c1c(C)n(C)c2c1cc(O)c1[nH]c3c(c12)CCCC3`: the GI50 with HCT-116 was 17.9 µM (inactive); with NCI/ADR-RES, 17.9 µM (inactive); in the test on Malme-3M it was 7.66 µM (inactive); in the test with U-251, 18.2 µM (inactive); in the test on RPMI-8226 it was 3.93 µM (inactive); in the test with HT-29, 18.8 µM (inactive). In addition, the GI50 in the test with OVCAR-5 is 28.8 µM (inactive); in the test with CAKI-1, 28.4 µM (inactive); in the test with HL-60, 21.6 µM (inactive); in the test on SW-620, 20.8 µM (inactive); with SK-OV-3, 29.4 µM (inactive); with HCT-15, 27.2 µM. The GI50 in the test on OVCAR-3 is 5.62 µM (inactive); with MDA-MB-231, 17.1 µM (inactive); in the test on SF-295, 39.1 µM (inactive); in the test on OVCAR-8, 21 µM (inactive); in the test with UO-31 it was 19.6 µM (inactive); in the test on MOLT-4, 16.9 µM (inactive).

Consider `O=C1/C(=C/c2ccc(OC(=O)c3ccc(Cl)cc3)cc2)CCC/C1=C\c1ccc(OC(=O)c2ccc(Cl)cc2)cc1`, for which the GI50 was > 100 µM (inactive) with HCT-116; > 100 µM (inactive) in the test with NCI/ADR-RES; 64.3 µM (inactive) in the test on U-251; > 100 µM (inactive) in the test with RPMI-8226; > 100 µM (inactive) in the test on HT-29; > 100 µM (inactive) in the test on OVCAR-5. The GI50 with CAKI-1 was > 100 µM (inactive); in the test with HL-60, > 100 µM (inactive); in the test on SW-620, > 100 µM (inactive); in the test with HCT-15, over 100 µM; with OVCAR-3, > 100 µM (inactive); in the test on MDA-MB-231, 46.5 µM (inactive). Also, the GI50 in the test on OVCAR-8, in the test with UO-31 and in the test on MOLT-4 was > 100 µM (inactive) throughout.

As for `CCOC(=O)C(Cc1ccc(OC(=O)OC(C)(C)C)cc1)NC(=O)OC(C)(C)C` (configuration not stated), the GI50 was 78 µM (inactive) in the test with HCT-116; 49.9 µM (inactive) with NCI/ADR-RES; > 100 µM (inactive) in the test with Malme-3M; 37.2 µM (inactive) in the test with U-251; > 100 µM (inactive) with HT-29; > 100 µM (inactive) in the test on OVCAR-5. Further, the GI50 in the test on CAKI-1 was > 100 µM (inactive); in the test with HL-60 it was 28.2 µM (inactive); in the test with SW-620, 34.7 µM (inactive); in the test with SK-OV-3 it was > 100 µM (inactive); in the test with HCT-15 it was over 100 µM; with OVCAR-3 it was 40.6 µM (inactive). For the same compound, the GI50 with MDA-MB-231 is 41.6 µM (inactive); in the test on SF-295 it was > 100 µM (inactive); with OVCAR-8, 37.4 µM (inactive); with UO-31 it was 54.3 µM (inactive); with MOLT-4, 19.7 µM (inactive); with NCI-H226 it was > 100 µM (inactive).

Take `CC(=O)OCC1OC(n2c(C)c(C(C)=O)c(-c3ccco3)c(C#N)c2=S)C(OC(C)=O)C(OC(C)=O)C1OC(C)=O` (configuration not stated): the GI50 in the test on HCT-116, with NCI/ADR-RES, in the test with Malme-3M, in the test on U-251, in the test on HT-29 and in the test on OVCAR-5 was > 100 µM (inactive) in each case. For the same compound, the GI50 was > 100 µM (inactive) with HL-60; > 100 µM (inactive) in the test on SW-620; > 100 µM (inactive) in the test on SK-OV-3; over 100 µM with HCT-15; > 100 µM (inactive) in the test on OVCAR-3; > 100 µM (inactive) with MDA-MB-231. In addition, the GI50 with SF-295 is > 100 µM (inactive); in the test on OVCAR-8, > 100 µM (inactive); with UO-31, < 0.01 µM (active); in the test with MOLT-4, 60 µM (inactive); with NCI-H226, > 100 µM (inactive).

In the case of `COC(=O)C1(C(=O)OC)CC2=C(S(=O)(=O)c3ccccc3)C[C@H](C#N)[C@H]2C1`, the GI50 with HCT-116, in the test on NCI/ADR-RES, with Malme-3M, with U-251, in the test on HT-29 and in the test with OVCAR-5 was > 100 µM (inactive) throughout. Further, the GI50 was > 100 µM (inactive) in the test with CAKI-1; > 100 µM (inactive) in the test on HL-60; > 100 µM (inactive) with SW-620; > 100 µM (inactive) in the test with SK-OV-3; 40.6 µM with HCT-15; > 100 µM (inactive) with MDA-MB-231. Further, the GI50 in the test with SF-295, with OVCAR-8, in the test with UO-31, with MOLT-4 and in the test on NCI-H226 was > 100 µM (inactive) each time.

On to `CC(C)(C)NCc1cc(C(C)(C)C)cc(-c2ccc(Cl)cc2)c1O`, for which the GI50 in the test on HCT-116 was 13.2 µM (inactive); in the test on NCI/ADR-RES, 14.6 µM (inactive); in the test with Malme-3M, 13.8 µM (inactive); in the test on U-251, 11.9 µM (inactive); in the test on RPMI-8226, 9.53 µM (inactive); in the test with HT-29, 17.9 µM (inactive). The GI50 with OVCAR-5 was 13.8 µM (inactive); in the test on CAKI-1, 12.6 µM (inactive); in the test with HL-60, 5.33 µM (inactive); in the test with SK-OV-3, 17.1 µM (inactive); in the test on HCT-15 it was 11 µM; in the test on OVCAR-3, 15.6 µM (inactive). Further, the GI50 with MDA-MB-231 is 11.2 µM (inactive); with SF-295, 17.3 µM (inactive); in the test on UO-31, 2.82 µM (inactive).

Regarding `O=Nc1c(-c2cccc([N+](=O)[O-])c2)nc2cnccn12`, the GI50 in the test with HCT-116 was 4.68 µM (inactive); with NCI/ADR-RES, 21.4 µM (inactive); in the test on Malme-3M, 22.2 µM (inactive); in the test on U-251, 20.4 µM (inactive); in the test with HT-29, 14.3 µM (inactive); in the test with OVCAR-5, 20.1 µM (inactive). Moreover, the GI50 in the test on CAKI-1 was 17 µM (inactive); in the test on HL-60, 34.2 µM (inactive); in the test with SW-620 it was 10.1 µM (inactive); with SK-OV-3 it was 68.7 µM (inactive); with HCT-15, 14.5 µM; in the test on OVCAR-3 it was 16.8 µM (inactive). In addition, the GI50 was 13.8 µM (inactive) with MDA-MB-231; 43.4 µM (inactive) in the test with SF-295; 14.5 µM (inactive) in the test on OVCAR-8; 11.7 µM (inactive) in the test on UO-31; 3.92 µM (inactive) with MOLT-4; 18.5 µM (inactive) in the test with NCI-H226.

Consider `C/C(=C\COP(=O)(O)OP(=O)(O)O)CC/C=C(\C)CNc1c(F)c(F)c(F)c(F)c1F`, for which the GI50 with HCT-116 is > 25.5 µM (inactive); in the test on NCI/ADR-RES, > 100 µM (inactive); with U-251, > 100 µM (inactive); in the test on HT-29, > 58.3 µM (inactive); in the test on OVCAR-5 it was > 100 µM (inactive); in the test on CAKI-1, > 100 µM (inactive). Moreover, the GI50 was > 100 µM (inactive) in the test with HL-60; > 84.7 µM (inactive) in the test with SW-620; > 100 µM (inactive) in the test on SK-OV-3; over 100 µM in the test on HCT-15; > 100 µM (inactive) in the test on OVCAR-3; 5.43 µM (inactive) in the test with MDA-MB-231. The GI50 is > 52.8 µM (inactive) with SF-295; > 64.3 µM (inactive) in the test on OVCAR-8; > 100 µM (inactive) in the test on UO-31; > 100 µM (inactive) in the test on MOLT-4; 20.3 µM (inactive) in the test on NCI-H226.

In the case of `COc1cc2c(c(OC)c1OC)-c1ccc(SC)c(=O)cc1[C@@H](OC(C)=O)CC2`, the GI50 in the test on HCT-116, in the test on NCI/ADR-RES, in the test on Malme-3M, in the test on U-251, in the test on HT-29 and with CAKI-1 was < 0.01 µM (active) each time. In addition, the GI50 in the test with HL-60 is < 0.01 µM (active); with SW-620, < 0.01 µM (active); with HCT-15 it was under 0.01 µM; with OVCAR-3, < 0.01 µM (active); in the test with MDA-MB-231, < 0.01 µM (active); in the test with SF-295, < 0.01 µM (active). Moreover, the GI50 in the test on OVCAR-8, in the test with UO-31, with MOLT-4 and with NCI-H226 was < 0.01 µM (active) throughout.

Regarding `C/C=C1/CN2[C@@H](C3=C[C@@H]4[C@@H]5N(C3=O)c3ccccc3[C@@]53CCN5C/C(=C/C)[C@@H]4C[C@H]53)C[C@@]34c5ccccc5N5C(=O)CC=C([C@H]1C[C@H]23)[C@H]54` [ISOSUNGUCINE], the GI50 was 2.94 µM (inactive) in the test on HCT-116; 8.81 µM (inactive) in the test on NCI/ADR-RES; 6.04 µM (inactive) in the test with Malme-3M; 2.23 µM (inactive) in the test on U-251; 2.11 µM (inactive) in the test on HT-29; 7.76 µM (inactive) in the test on OVCAR-5. Also, the GI50 in the test with CAKI-1 is 5.86 µM (inactive); in the test with HL-60 it was 1.03 µM (active); with SW-620, 2.92 µM (inactive); in the test with SK-OV-3 it was 8.77 µM (inactive); in the test with HCT-15, 2.33 µM; in the test on OVCAR-3 it was 5.85 µM (inactive). The GI50 with MDA-MB-231 was 2.43 µM (inactive); with SF-295, 7.73 µM (inactive); in the test on OVCAR-8, 3.91 µM (inactive); in the test with UO-31, 2.32 µM (inactive); in the test with MOLT-4, 1.46 µM (inactive); in the test on NCI-H226, 7.83 µM (inactive).
